The record followed here is ChEMBL document CHEMBL1201862, “PubChem BioAssay data set” (2004).

Activity calls are given as the source filed them.

A short description of assay [1]: MITF Orthogonal Assay: MALME3 CTG Assay Measured in Cell-Based System Using Plate Reader - 2084-04_Inhibitor_Dose_DryPowder_Activity_Set6. In kind it is functional. Particulars: MALME-3.
Assay [2] can be described thus: cytotoxicity in melanoma parental cells – cell-based, CellTiter-Glo, dry powder, set 6, MITF inhibitor project, dose response (AID 624429). In kind it is functional. Particulars: SK-MEL-5. (In general: ATP-based viability assays read luminescence as a measure of living cells.)
In a further assay the target is Aspartyl aminopeptidase (Plasmodium falciparum 3D7, UniProt Q8I2J3).
Assay [3] concerns the target T1, Alkaline phosphatase, tissue-nonspecific isozyme (Homo sapiens, UniProt P05186).
T1 sequence (P05186 whole entry): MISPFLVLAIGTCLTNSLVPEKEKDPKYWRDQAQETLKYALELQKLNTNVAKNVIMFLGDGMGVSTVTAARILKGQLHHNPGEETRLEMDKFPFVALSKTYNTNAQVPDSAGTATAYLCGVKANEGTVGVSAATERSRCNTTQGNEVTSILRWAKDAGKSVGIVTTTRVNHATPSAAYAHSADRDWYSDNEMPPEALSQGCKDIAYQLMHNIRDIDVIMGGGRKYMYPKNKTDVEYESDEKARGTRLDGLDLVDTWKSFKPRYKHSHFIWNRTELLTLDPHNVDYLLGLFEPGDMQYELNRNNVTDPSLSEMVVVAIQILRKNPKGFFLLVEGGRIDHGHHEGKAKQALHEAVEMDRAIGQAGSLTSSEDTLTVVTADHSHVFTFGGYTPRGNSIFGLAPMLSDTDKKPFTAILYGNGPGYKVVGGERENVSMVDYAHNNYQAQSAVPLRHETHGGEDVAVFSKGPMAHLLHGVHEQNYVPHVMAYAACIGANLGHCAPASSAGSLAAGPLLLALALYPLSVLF
In words: activation of tissue-nonspecific alkaline phosphatase – biochemical, TNAP isozyme, mouse IAP uHTS hits, selectivity assay for mouse IAP activator project, dose response (AID 488880). It is filed as functional.

Assay [4] has as its target Induced myeloid leukemia cell differentiation protein Mcl-1 (Homo sapiens, UniProt Q07820). In kind it is functional.
Assay [5] can be described thus: viability of PTEN-deleted HCT116 cells – cell-based, HCT116 PTEN knockout, dose response (AID 1047).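 Further: HCT116 colon tumor cells with PTEN knocked out; cells exposed to compound for 60 hours before readout; potency for loss of cell viability measured by luminescence.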 In kind it is functional.
The next assay concerns the target T2, Streptokinase A (Streptococcus pyogenes serotype M1, UniProt P10520).
T2 sequence (P10520 whole entry): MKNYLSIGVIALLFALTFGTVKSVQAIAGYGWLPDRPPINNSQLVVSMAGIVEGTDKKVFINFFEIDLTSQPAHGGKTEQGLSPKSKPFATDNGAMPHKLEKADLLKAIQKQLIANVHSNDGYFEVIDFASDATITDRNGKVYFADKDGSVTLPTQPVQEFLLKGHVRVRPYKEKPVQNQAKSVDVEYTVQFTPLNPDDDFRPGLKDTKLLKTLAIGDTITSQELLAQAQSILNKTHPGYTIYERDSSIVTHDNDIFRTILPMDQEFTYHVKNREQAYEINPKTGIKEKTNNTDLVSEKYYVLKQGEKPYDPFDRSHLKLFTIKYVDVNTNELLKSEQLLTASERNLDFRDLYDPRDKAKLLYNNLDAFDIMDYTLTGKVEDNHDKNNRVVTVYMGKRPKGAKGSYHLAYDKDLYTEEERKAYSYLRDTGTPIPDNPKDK
Kind of assay: viability-normalized secreted streptokinase activity reduction – plasminogen activation absorbance, OD405, dose response (AID 1914).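 Further: secreted streptokinase activity via plasminogen activation per viability signal from cell pellet.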 It is filed as functional, Streptococcus pyogenes M1 GAS.

Assay [6] in a line: NIH3T3 cell viability loss – ATP luminescence, mouse fibroblasts, counter-screen, dose response (AID 2010).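 Further: cells exposed to compound for about 90 hours before reading.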 In kind it is functional, cell-based. (In general: The purpose of a counterscreen is to sort out artefacts and off-target activity.)
Assay [7] has as its target T3, Orexin/Hypocretin receptor type 1 (Homo sapiens, UniProt O43613).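 Further: antagonism measured against Orexin-A challenge at about its EC80.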
T3 sequence (O43613 whole entry): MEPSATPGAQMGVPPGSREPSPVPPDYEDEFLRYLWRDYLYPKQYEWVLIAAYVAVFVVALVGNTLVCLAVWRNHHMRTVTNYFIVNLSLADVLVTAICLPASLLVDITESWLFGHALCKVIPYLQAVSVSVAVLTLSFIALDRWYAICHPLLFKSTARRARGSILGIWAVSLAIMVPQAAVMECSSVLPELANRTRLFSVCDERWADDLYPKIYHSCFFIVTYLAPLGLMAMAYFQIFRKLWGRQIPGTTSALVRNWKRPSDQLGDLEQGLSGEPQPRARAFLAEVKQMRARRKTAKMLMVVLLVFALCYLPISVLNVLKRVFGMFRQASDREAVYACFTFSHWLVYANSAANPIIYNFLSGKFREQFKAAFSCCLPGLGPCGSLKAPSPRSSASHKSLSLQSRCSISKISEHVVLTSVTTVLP
In words: Homogeneous Time Resolved Fluorescence (HTRF)-based cell-based high throughput dose response assay for antagonists of the orexin 1 receptor (OX1R; HCRTR1). [Related pubchem assays (depositor defined):AID434989, AID435008, AID463079, AID485270, AID492963, AID492964, AID492965, AID493232, AID504717, AID504718]. In kind it is functional.

The target in assay [8] is Homeodomain-interacting protein kinase 2 (Homo sapiens, UniProt Q9H2X6). It is filed as functional.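 Further: measured within a kinome-wide kinase profiling panel, HIPK2 being one panel member.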
Assay [9] concerns the target Serine/threonine-protein kinase Chk1 (Homo sapiens, UniProt O14757). In kind it is functional.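 Further: measured as one member of a kinome-wide kinase profiling panel.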
Assay [10] addresses Mast/stem cell growth factor receptor Kit (Homo sapiens, UniProt P10721). In kind it is functional.
The target of assay [11] is 3-phosphoinositide-dependent protein kinase 1 (Homo sapiens, UniProt O15530). In kind it is functional.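 Further: value comes from the Navigating the Kinome panel, PDPK1 member.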
Assay [12] deals with cGMP-dependent protein kinase 1 (Homo sapiens, UniProt Q13976). In kind it is functional.
Assay [13] has as its target Serine/threonine-protein kinase Nek2 (Homo sapiens, UniProt P51955). In kind it is functional.
In assay [14] the target is Serine/threonine-protein kinase Chk2 (Homo sapiens, UniProt O96017). It is filed as functional.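 Further: CHEK2 entry within a kinome-wide screening panel.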
The target of assay [15] is Calcium/calmodulin-dependent protein kinase type 1 (Homo sapiens, UniProt Q14012). It is filed as functional.
Assay [16] deals with Serine/threonine-protein kinase pim-1 (Homo sapiens, UniProt P11309). It is filed as functional.
Assay [17] has as its target Serine/threonine-protein kinase D3 (Homo sapiens, UniProt O94806). In kind it is functional.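 Further: determined within a kinase panel screen, with PRKCN as the panel member.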
Assay [18] addresses Tyrosine-protein kinase Blk (Homo sapiens, UniProt P51451). In kind it is functional.
The target in assay [19] is Serine/threonine-protein kinase MRCK alpha (Homo sapiens, UniProt Q5VT25). In kind it is functional.
The target of assay [20] is Proto-oncogene tyrosine-protein kinase Src (Homo sapiens, UniProt P12931). It is filed as functional.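 Further: SRC entry within a kinome-wide kinase profiling panel.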
Assay [21] addresses Tyrosine-protein kinase Lyn (Homo sapiens, UniProt P07948). It is filed as functional.
The target in assay [22] is Tyrosine-protein kinase ABL1 (Homo sapiens, UniProt P00519). It is filed as functional.
Tyrosine-protein kinase ABL1, sequence (P00519 whole entry): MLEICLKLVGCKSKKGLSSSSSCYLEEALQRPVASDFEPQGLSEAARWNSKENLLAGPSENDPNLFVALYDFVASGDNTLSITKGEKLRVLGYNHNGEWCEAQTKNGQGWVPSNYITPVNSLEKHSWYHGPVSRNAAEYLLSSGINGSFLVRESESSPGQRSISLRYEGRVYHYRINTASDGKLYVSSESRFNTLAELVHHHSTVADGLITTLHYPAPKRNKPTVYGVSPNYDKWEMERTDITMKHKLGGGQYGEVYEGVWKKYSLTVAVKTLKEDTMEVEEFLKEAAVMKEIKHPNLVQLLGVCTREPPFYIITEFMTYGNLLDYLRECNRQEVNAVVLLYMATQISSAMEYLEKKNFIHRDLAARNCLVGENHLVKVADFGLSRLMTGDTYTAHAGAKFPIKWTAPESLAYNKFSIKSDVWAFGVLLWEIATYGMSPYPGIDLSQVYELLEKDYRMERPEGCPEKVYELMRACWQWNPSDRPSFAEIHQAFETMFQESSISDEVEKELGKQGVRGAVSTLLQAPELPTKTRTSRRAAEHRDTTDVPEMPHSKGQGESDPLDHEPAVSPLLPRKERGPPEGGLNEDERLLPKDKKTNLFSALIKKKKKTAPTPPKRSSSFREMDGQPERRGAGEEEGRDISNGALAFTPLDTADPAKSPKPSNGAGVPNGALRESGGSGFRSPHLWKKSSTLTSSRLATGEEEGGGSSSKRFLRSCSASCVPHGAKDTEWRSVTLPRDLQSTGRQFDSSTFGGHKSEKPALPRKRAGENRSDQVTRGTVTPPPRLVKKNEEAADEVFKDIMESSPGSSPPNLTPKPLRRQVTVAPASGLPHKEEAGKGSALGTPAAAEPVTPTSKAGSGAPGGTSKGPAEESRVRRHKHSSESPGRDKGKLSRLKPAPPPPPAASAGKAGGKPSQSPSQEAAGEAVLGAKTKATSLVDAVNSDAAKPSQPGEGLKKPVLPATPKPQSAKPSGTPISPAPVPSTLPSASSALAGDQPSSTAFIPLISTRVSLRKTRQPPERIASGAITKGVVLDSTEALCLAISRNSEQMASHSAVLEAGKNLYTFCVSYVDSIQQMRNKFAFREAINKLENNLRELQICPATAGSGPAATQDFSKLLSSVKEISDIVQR

Serine/threonine-protein kinase pim-1, sequence (P11309 whole entry): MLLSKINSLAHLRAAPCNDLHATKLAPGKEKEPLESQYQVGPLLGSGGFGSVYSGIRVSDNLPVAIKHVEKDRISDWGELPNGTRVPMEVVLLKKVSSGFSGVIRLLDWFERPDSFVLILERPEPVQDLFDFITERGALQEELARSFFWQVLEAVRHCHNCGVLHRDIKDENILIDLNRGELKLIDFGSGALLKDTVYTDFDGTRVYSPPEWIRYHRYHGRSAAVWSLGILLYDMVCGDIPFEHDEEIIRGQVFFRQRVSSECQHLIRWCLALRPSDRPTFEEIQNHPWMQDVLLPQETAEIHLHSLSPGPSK
Serine/threonine-protein kinase MRCK alpha, sequence (Q5VT25 whole entry): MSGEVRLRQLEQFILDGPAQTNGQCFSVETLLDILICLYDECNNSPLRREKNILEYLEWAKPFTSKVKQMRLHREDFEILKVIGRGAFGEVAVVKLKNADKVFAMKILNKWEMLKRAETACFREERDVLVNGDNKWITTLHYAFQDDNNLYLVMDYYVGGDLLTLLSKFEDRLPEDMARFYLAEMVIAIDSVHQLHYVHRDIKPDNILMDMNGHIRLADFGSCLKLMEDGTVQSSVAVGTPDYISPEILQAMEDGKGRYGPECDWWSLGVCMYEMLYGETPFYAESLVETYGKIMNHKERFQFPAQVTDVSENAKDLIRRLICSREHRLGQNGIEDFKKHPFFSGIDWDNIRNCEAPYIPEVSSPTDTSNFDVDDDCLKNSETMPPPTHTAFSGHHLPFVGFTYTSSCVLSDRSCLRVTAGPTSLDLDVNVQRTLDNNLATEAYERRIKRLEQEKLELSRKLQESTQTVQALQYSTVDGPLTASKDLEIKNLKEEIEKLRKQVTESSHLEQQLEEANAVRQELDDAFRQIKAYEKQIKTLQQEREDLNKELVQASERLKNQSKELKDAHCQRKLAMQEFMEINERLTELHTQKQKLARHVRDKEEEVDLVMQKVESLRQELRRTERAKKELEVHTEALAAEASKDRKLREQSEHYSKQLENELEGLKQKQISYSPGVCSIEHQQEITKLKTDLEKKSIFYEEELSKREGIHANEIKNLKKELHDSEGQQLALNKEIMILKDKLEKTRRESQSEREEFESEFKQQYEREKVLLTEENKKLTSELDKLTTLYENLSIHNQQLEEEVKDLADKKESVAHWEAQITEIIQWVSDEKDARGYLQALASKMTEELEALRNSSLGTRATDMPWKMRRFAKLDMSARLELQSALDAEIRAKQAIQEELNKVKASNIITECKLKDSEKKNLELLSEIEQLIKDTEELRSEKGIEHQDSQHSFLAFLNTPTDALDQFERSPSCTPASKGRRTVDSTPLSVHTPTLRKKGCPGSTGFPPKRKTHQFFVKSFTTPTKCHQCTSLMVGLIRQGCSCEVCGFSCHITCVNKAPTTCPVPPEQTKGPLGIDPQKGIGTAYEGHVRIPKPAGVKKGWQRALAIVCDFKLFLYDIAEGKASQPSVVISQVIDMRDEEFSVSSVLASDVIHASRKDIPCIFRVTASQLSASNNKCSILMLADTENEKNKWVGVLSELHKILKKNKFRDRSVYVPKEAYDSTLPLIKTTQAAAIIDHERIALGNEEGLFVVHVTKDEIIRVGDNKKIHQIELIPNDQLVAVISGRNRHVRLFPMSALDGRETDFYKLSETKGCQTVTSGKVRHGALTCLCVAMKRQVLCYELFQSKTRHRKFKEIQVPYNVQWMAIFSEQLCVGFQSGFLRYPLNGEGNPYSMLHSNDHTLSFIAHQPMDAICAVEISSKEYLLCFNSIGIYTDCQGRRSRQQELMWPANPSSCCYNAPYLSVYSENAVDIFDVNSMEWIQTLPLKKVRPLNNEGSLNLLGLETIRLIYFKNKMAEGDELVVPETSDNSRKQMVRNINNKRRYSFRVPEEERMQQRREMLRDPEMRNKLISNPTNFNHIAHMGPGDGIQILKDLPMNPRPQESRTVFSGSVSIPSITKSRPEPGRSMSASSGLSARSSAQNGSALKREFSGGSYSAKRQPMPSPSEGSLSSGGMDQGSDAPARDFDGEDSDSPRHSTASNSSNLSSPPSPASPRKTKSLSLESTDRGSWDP
Serine/threonine-protein kinase Chk1, sequence (O14757 whole entry): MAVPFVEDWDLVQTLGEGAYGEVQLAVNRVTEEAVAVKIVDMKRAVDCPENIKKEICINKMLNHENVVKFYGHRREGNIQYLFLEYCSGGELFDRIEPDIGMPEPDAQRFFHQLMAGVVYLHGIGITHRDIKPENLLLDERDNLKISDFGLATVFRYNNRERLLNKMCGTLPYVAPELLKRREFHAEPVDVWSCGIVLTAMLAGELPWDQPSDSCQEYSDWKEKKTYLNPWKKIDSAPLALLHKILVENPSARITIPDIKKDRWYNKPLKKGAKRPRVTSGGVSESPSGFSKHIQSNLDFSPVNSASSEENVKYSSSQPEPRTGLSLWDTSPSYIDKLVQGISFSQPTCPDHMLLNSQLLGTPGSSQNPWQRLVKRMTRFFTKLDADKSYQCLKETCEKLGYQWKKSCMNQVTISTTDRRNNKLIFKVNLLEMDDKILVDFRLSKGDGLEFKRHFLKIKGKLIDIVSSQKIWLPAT
3-phosphoinositide-dependent protein kinase 1, sequence (O15530 whole entry): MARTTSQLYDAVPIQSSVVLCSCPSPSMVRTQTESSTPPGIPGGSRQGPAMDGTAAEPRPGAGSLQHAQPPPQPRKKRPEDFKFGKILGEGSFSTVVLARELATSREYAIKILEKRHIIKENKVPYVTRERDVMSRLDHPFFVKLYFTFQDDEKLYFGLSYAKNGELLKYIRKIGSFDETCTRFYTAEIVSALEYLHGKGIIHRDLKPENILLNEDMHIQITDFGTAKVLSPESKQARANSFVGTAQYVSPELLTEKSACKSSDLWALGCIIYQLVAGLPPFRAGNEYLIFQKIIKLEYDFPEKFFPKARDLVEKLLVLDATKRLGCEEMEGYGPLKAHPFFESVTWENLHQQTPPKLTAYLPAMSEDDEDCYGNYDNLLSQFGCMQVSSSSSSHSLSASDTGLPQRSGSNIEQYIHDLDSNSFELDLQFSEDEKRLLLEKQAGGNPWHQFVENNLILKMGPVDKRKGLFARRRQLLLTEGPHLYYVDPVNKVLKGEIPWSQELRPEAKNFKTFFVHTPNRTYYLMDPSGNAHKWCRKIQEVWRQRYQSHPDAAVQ
Serine/threonine-protein kinase Nek2, sequence (P51955 whole entry): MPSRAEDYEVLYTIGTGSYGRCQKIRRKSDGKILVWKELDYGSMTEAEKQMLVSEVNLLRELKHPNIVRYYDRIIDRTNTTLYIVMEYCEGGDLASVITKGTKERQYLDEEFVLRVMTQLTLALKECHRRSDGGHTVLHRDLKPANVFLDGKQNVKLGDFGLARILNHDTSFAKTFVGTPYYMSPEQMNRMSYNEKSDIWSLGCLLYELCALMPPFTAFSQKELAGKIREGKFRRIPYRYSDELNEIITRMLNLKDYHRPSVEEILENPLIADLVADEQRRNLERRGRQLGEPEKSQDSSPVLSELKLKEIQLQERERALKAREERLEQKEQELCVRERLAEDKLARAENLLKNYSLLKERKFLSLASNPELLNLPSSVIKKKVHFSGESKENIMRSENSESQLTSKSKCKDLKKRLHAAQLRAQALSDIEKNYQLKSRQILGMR
Induced myeloid leukemia cell differentiation protein Mcl-1, sequence (Q07820 whole entry): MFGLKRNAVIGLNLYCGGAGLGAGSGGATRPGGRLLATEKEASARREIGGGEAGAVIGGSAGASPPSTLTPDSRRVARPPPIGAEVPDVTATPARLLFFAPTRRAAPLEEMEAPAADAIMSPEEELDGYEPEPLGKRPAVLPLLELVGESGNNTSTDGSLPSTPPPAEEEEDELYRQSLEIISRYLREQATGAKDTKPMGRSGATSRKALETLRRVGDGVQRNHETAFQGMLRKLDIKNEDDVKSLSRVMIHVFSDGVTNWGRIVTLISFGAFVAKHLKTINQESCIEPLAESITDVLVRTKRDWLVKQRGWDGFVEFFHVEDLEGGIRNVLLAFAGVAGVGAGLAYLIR

For the compound `C=CCNC1=C(Cl)C(=O)c2ccccc2C1=O`, the half-maximal activity concentration (AC50) in assay [1] was 9990 nM (active); in assay [2], 3820 nM (active).

For the compound `CS(=O)(=O)c1ccc2c(c1)SC1=NC(=O)/C(=C/c3ccc(O)c(O)c3)C(=N)N12`, the 50% inhibitory concentration (IC50) is 2160 nM (active) on Aspartyl aminopeptidase and 5260 nM (active) in [4]. Further, the concentration for a half-maximal effect (EC50) in assay [3] is 77500 nM (active).

On to `CCOC(=O)C(C(=O)OCC)c1cc(Br)c2noc3c2c1C(=O)c1ccccc1-3`, for which the EC50 in [5] is 10200 nM (active); at Streptokinase A it was 11900 nM (active); in assay [6], 3060 nM (active).

For `CN(C)c1ccc(-c2nnc(-c3cccs3)o2)cc1`, in [7], the IC50 is 3580 nM (active).

`COc1ccc(C(=O)Nc2n[nH]c3ccc(-c4cn(Cc5ccccc5)nn4)cc23)cc1OC`: the Ki in [8] was 25.1 nM (active); in assay [9], 3980 nM (active); in assay [10], > 1260 nM (inactive); in [11], 1000 nM (active); in assay [12], 631 nM (active); in assay [13] it was 6310 nM (active). The Ki in [14] was 50.1 nM (active); in assay [15] it was > 1580 nM (inactive); in [16] it was > 5010 nM (inactive); in assay [17] it was 1580 nM (active); in assay [18], 1260 nM (active); in [19], 6310 nM (active). For the same compound, the Ki in assay [20] was 316 nM (active); in [21] it was 501 nM (active); in assay [22], > 631 nM (inactive).

A word on the AC50: it is the concentration giving half of the maximal activity seen. By IC50 is commonly meant the point on the concentration scale where inhibition reaches its midpoint. The term EC50 denotes the concentration that produces a half-maximal response. As usually defined, the Ki is a dissociation constant, usually derived from enzyme kinetics or from competition with a known ligand.
